Assay results: US7964613B2 (Asahi Kasei Pharma Corporation, priority 2007, dated 2011)
Where a name gives a salt, the structure may show the parent alone.

Experiments:
human ROCK1 = biological target: T1, human ROCK1 (Homo sapiens, UniProt Q13464); assay: Measurement of Rho kinase inhibitory activity (ELISA of MBS phosphorylation); type: biochemical; settings: human ROCK1, MBS substrate, 100 μM ATP, 30° C. for 10 minutes
T1 construct: His tag (N); host or cells: insect cells (Sf9)
How it was run: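 N-terminal His-tagged human ROCK1 (1-727, Sf9-expressed) phosphorylated plate-immobilized MBS in 20 mM HEPES pH 7.5, 100 μM ATP, 30° C for 10 minutes. Phospho-MBS detected by antibody ELISA (A490); IC50 is concentration giving 50% inhibition.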

[1] = system: rabbit normal intraocular pressure; assay: Intraocular pressure reducing action; type: in vivo, Japanese white rabbit; settings: Oryctolagus cuniculus, topical; 3 mM aqueous solution, 50 μl to the left eye; max IOP reduction (2, 4, 6 hours) / value immediately before administration; read-out: intraocular pressure reducing degree
How it was run: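 Japanese white rabbits (~2 kg) under topical anaesthesia received 50 μl of a 3 mM aqueous test solution in the left eye, right eye untreated. IOP read by tonometer before and at 2, 4, 6 h; maximal left–right difference divided by pre-dose IOP ×100 gives % reduction.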

TNF-α production = assay: Inhibitory effect on TNF-α production in mice (LPS); type: in vivo, BALB/c mice; settings: Mus musculus, 1.5 h; oral administration of 30 mg/kg, LPS 5 μg i.p. 60 minutes later, plasma after 90 minutes; read-out: TNF-α production suppressing action
Procedure: BALB/c mice (Japan CRJ, famale) were used as experimental animals. Each test compound was dissolved in distilled water at a concentration suitable for the examination. The weight of each mouse was measured, a test compound solution was orally administered in a volume corresponding to 10 ml/kg, and only distilled water was administered to the control group. Each group consisted of five to seven animals. LPS was dissolved in physiological saline, and intraperitoneally administered to each mouse in an amount of 5 μg. The test compound was administered first, and LPS (lipopolysaccharide, Sigma) was administered 60 minutes later. After 90 minutes, blood was collected from the abdominal large vein in the presence of heparin, and plasma was obtained by centrifugation. TNF-α content in the plasma was measured by using the ELISA method.

[2] = system: rat spinal canal stenosis (cauda equina compression-induced walking dysfunction) model; assay: Rat spinal canal stenosis model, walking ability test; type: in vivo; settings: treadmill; for walk distance compared with the solvent repetitive administration group: 14th day of repetitive administration; for Inventive compound repetitive administration group (average distance (m)): 14th day of repetitive administration started 4th day after operation, 7 or 8 animals
Source text: A rat spinal canal stenosis (cauda equina compression-induced walking dysfunction) model can be prepared according to the method of Nakai, K et al. (Anesth. Analg., 94, pp. 1537-1541 (2002)) or the like. Namely, a rat is anesthetized with pentobarbital sodium, shaved on the back, and fixed in the abdominal position. After disinfection on the back with Isodine Surgical Scrub (Meiji Seika), a lumbar part is cut open along the median to expose the spine. Then, a silicone rubber of 1×4×1.5 mm (height×length×width) is inserted into the fifth lumbar vertebral canal from a small hole on the vertebral arch. Benzylpenicillin potassium (Crystalline Penicillin G Potassium Meiji, Meiji Seika) is dropped on the opened lesion and intramuscularly injected in the femoral region for the purpose of evasion of infectious diseases. The muscles and skin of the opened lesion are sutured with a ligature, and Isodine Surgical Scrub is applied to the sutured portion. Animals of sham group are also prepared according to the aforementioned method, provided that silicone rubber is not inserted.
In walking ability test, evaluation is performed by using a treadmill (Muromachi Kikai). A rat is placed on a traveling belt, adapted to the environment more than 3 minutes under a grid-electrified condition (0.04 to 4 mA), and then made to start walking from a velocity of 10 m/min, and then the velocity is increased by 5 m/min every 3 minutes. The walk is stopped, and electrical stimulation (0.04 to 4 mA) is applied to the rat which has moved to the grid for electrical stimulation provided before the traveling belt. Distance which the animal walked after the animal started the walk until the animal became unable to walk, i.e., the animal came not to walk even if a stimulation (sound, contact, electricity) was added to the animal to urge it to walk, was calculated from the walking time. Before the operation, the walking function test is carried out 3 times to perform training of walk. From the 4th day after the operation, repetitive administration of each compound of the present invention as a test compound was started, and the walking ability test was performed on the 14th day of the administration for the measurement.
Each group consisted of 7 or 8 animals, and the average distance before the administration was the average for the animals of both groups. […] It was confirmed that the compounds of the present invention were useful as medicaments for therapeutic treatment of a disease accompanied by walking dysfunction such as spinal canal stenosis.

[3] = system: myosin regulatory light chain of mesenteric artery; settings: cited from earlier work
intraocular pressure [4] = assay: Rabbit intraocular pressure reduction enhancing action, Test Example 7-1 (combination use); type: in vivo, Japanese white rabbit; settings: 19-1 compound 0.01 weight % aqueous solution 50 μL, left-right eye difference at 2, 4, 6 hours, six rabbits
Procedure: However, the effect is not limited to the 19-1 compound, and the ophthalmic solution concentration of the 19-1 compound is not limited to those used in this test example. Moreover, as for the test compound used for combination use, similar effect can be obtained also with the compounds of the present invention represented with the example numbers mentioned in Test Example 3.
As a test compound, the 19-1 compound was dissolved in physiological saline, and the solution was neutralized by addition of sodium hydroxide (pH 7.0 to 8.0) to prepare a 0.01 weight % aqueous solution (19-1 compound aqueous solution). As the drugs for combination use, isopropyl unoprostone (trade name: Rescula, Santen Pharmaceutical) was used as a prostaglandin-related drug, and brinzolamide hydrochloride (trade name: Azopt, Alcon Japan) was used as […], as the marketed formulations as they were.
A Japanese white rabbit having a body weight of about 2 kg was placed in a positioner and naturalized for one week before the experiment. An opthalmologic local anesthesant (Benoxil) was administered to both eyes, and then intraocular pressure before instillation was measured by using a tonometer (Classic 30, Solan). A test aqueous solution or the drug for combination use was administered to the left eye, and the right eye was not treated (control eye). The test groups consisted of (1) control group, (2) group instilled only with the 19-1 compound aqueous solution (single drug group 1), (3) group instilled only with the drug for combination use (single drug group 2), and (4) group instilled with the drug for combination use and the 19-1 compound aqueous solution (combination use group), and six rabbits were used for each group. As for the rabbits of these groups, 50 μL of physiological saline was first instilled to the control group, single drug group 1, and single drug group 2, and the drug for combination use was first instilled in the same volume to the combination use group. […] The intraocular pressure thereafter was measured for each group 2, 4 and 6 hours after the second administration of the test compound, and the difference of the measured values for the left and right eyes at each measurement time was considered an intraocular pressure reduction value of each group. The largest difference of the intraocular pressure values for the left and right eyes among those of the measured values of the measurement times was considered the maximum intraocular pressure reduction value (max ? IOP) of each drug group.

intraocular pressure [5] = assay: Rabbit intraocular pressure reduction enhancing action, Test Example 7-2 (combination use with timolol maleate); type: in vivo, Japanese white rabbit; settings: Table 6; 19-1 compound 0.01 weight % aqueous solution 50 μL, Timoptol 50 μL; difference relative to control group at 1, 2, 4 hours; 12 rabbits
Procedure: As a test compound, the 19-1 compound was dissolved in physiological saline, and the solution was neutralized by addition of sodium hydroxide (pH 7.0 to 8.0) to prepare a 0.01 weight % aqueous solution (19-1 compound aqueous solution). As a drug for combination use, timolol maleate (trade name: Timoptol, Santen Pharmaceutical) was used as an adrenergic receptor β blocker, as the marketed formulation as it was.
A Japanese white rabbit having a body weight of about 2 kg was placed in a positioner and naturalized for one week before the experiment. An opthalmologic local anesthesant (Benoxil) was administered to both eyes, and then intraocular pressure before instillation was measured by using a tonometer (Classic 30, Solan). […] The intraocular pressure thereafter was measured for each group 1, 2 and 4 hours after the second administration of the test compound, and the difference of the measured values at each measurement time for the each group and the control group was considered an intraocular pressure reduction value of each group. The largest difference of the intraocular pressure values relative to the control group among those of the measured values of the measurement times was considered the maximum intraocular pressure reduction value (max ? IOP) of each drug group.

T1 sequence (Q13464 1-727): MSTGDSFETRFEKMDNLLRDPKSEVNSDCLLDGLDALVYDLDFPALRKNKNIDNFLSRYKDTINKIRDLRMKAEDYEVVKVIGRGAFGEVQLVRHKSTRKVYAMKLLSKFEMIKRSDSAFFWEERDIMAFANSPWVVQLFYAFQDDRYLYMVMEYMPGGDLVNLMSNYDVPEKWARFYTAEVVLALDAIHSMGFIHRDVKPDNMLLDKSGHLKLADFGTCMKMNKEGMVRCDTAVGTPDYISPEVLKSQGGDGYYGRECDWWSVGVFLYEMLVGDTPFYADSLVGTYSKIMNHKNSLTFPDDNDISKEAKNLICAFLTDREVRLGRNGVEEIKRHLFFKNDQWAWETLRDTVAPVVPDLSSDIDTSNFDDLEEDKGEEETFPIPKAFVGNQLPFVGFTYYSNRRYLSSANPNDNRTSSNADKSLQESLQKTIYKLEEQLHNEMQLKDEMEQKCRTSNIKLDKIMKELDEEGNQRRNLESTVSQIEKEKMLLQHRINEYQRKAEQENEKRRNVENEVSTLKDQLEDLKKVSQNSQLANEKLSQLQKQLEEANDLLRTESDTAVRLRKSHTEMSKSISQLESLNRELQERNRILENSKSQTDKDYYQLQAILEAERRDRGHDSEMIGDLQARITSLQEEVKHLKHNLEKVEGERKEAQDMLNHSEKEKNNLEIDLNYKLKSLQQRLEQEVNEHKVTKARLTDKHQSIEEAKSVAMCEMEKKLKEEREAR

Cc1cncc2cccc(S(=O)(=O)N3CC[C@H](N)C3)c12 [Example 8-1, (S)-3-Amino-1-(4-methyl-5-isoquinolinesulfonyl)pyrrolidine]
IC50 (human ROCK1): < 1000 nM
inhibition in vivo at 3000 µM [1]: ≥ 20%
inhibition in vivo at 30 mg/kg (TNF-α production): ≥ 50%
walk distance compared with the solvent repetitive administration group [2]: extended the walk distance
Inventive compound repetitive administration group (average distance (m)) [2]: 169 m

CN(C)CC(=O)N[C@H]1CCN(S(=O)(=O)c2cccc3cncc(Cl)c23)C1 [Example 57-1, (S)-3-[(2-Dimethylamino)acetyl]amino-1-(4-chloro-5-isoquinolinesulfonyl)pyrrolidine]
IC50 (human ROCK1): 1000 to 3000 nM
inhibition in vivo at 3000 µM [1]: ≥ 20%
inhibition in vivo at 30 mg/kg (TNF-α production): ≥ 30%
walk distance compared with the solvent repetitive administration group [2]: extended the walk distance
Inventive compound repetitive administration group (average distance (m)) [2]: 183 m

CC1CNCCN1S(=O)(=O)c1cccc2cnccc12 (centres unmarked) [Example H-7, 1-(5-isoquinolinesulfonyl)-2-methylpiperazine]
inhibition of phosphorylation of myosin regulatory light chain [3]: inhibits the phosphorylation of myosin regulatory light chain of mesenteric artery

CCN[C@H]1CN(CCCOC)S(=O)(=O)c2sc(S(N)(=O)=O)cc21 [brinzolamide hydrochloride, reference compound]
Max IOP (maximum intraocular pressure reduction value) (intraocular pressure [4]; Table 4, Azopt 50 μL): 2.3 mmHg

CCCCCCCC(=O)CC[C@@H]1[C@@H](C/C=C\CCCC(=O)OC(C)C)[C@@H](O)C[C@H]1O [isopropyl unoprostone, reference compound]
Max IOP (maximum intraocular pressure reduction value) (intraocular pressure [4]; Table 5, Rescula 50 μL): 4.4 mmHg

CC(C)(C)NC[C@H](O)COc1nsnc1N1CCOCC1 [timolol maleate, reference compound]
Max IOP (maximum intraocular pressure reduction value) (intraocular pressure [5]): 1.9 mmHg
